Source: US10301294B2, “Compounds for the treatment of tuberculosis” (priority 2013, dated 2019)
pIC50: −log10 of the molar value.

Columns and labels:
Format in all cases: cell-based
[1] = Cytotoxicity against HepG2; conditions: human, HepG2 cells, 26.0 uM highest concentration measured
[2] = Cytotoxicity against HeLa; conditions: human, HeLa cells, 26.0 uM highest concentration measured
[3] = test system: carbon-starved M. tuberculosis H37Rv; experiment: Non-replicating IC90 determination by luciferase (carbon-starved cells); conditions: Mycobacterium tuberculosis, H37RV; non-replicating carbon-starved Mtb, luciferase; three independent experiments in triplicate; read-out: TB Growth Inhibition Activity, IC90 Non-replicating_luciferase
[4] = Cytotoxicity against Hek 293; conditions: human, HEK293 cells, 26.0 uM highest concentration measured
[5] = test system: replicating M. tuberculosis H37Rv; experiment: microbe, parasite or virus in culture; conditions: Mycobacterium tuberculosis, H37RV, three independent experiments in triplicate, read-out: TB Growth Inhibition Activity, IC90 Replicating_logarithmic (converted)

SMILES | pIC50 [1] | pIC50 [2] | IC90 [3] [µM] | pIC50 [4] | IC90 [5] [µM]
c1ccc(CSc2nnc(C3CCCCC3)o2)cc1 | < 4.59 | < 4.59 | 1 | < 4.59 | 125
FC(F)(F)c1ccc(CSc2nnc(-c3ccccc3)o2)cc1 | < 4.59 | < 4.59 | 1 | < 4.59 | 
c1ccc(Cn2cc(CSc3nnc(-c4ccccc4)o3)nn2)cc1 | < 4.59 | < 4.59 | 4 | < 4.59 | > 62
c1ccc(CSc2nnc(-c3cc4ccccc4o3)o2)cc1 | < 4.59 | < 4.59 | 2 | < 4.59 | 
N#Cc1ccc(-c2nnc(SCc3ccccc3)o2)cc1 | < 4.59 | < 4.59 | 8 | < 4.59 | 
O=C(Cc1ccccc1)c1nnc(-c2ccccc2)o1 | < 4.59 | < 4.59 | 16 | < 4.59 | 
COCCSc1nnc(-c2ccccc2)o1 [drawing 148] | < 4.59 | < 4.59 | 3 | < 4.59 | 125
Cc1ccc(CSc2nnc(-c3ccccc3)o2)cc1 | < 4.59 | < 4.59 | 1 | < 4.59 | 
CS(=O)(=O)c1ccccc1CSc1nnc(-c2ccccc2)o1 | < 4.59 | < 4.59 |  | < 4.59 | 
N#Cc1cccc(-c2nnc(SCc3ccccc3)o2)c1 | < 4.59 | < 4.59 | 8 | < 4.59 | 
Fc1ccc(CSc2nnc(-c3ccccc3)o2)cc1 [drawing 136] | < 4.59 | < 4.59 | 1 | < 4.59 | 
c1ccc(-c2nnc(SCCN3CCCC3)o2)cc1 | < 4.59 | < 4.59 | 16 | < 4.59 | 
FC(F)(F)Oc1cccc(CSc2nnc(-c3ccccc3)o2)c1 | < 4.59 | < 4.59 | 2 | < 4.59 | 
N#Cc1ccc(CSc2nnc(-c3ccccc3)o2)cc1 | < 4.59 | < 4.59 | 2 | < 4.59 | 
FC(F)(F)Oc1ccc(-c2nnc(SCc3ccccc3)o2)cc1 | < 4.59 | < 4.59 | 2 | < 4.59 | 
Cc1cccc(-c2nnc(SCc3ccccc3)o2)c1 | < 4.59 | < 4.59 | 8 | < 4.59 | 
FC(F)(F)c1ccccc1CSc1nnc(-c2ccccc2)o1 | < 4.59 | < 4.59 | 1 | < 4.59 | 
c1ccc(-c2nnc(SCCN3CCOCC3)o2)cc1 | < 4.59 | < 4.59 | 250 | < 4.59 | 
FC(F)(F)Oc1ccccc1-c1nnc(SCc2ccccc2)o1 | < 4.59 | < 4.59 | 62 | < 4.59 | 
Cc1nnc(SCc2ccccc2)o1 | < 4.59 | < 4.59 | 31 | < 4.59 | 
c1ccc(-c2ccc(CSc3nnc(-c4ccccc4)o3)cc2)cc1 | < 4.59 | < 4.59 | 8 | < 4.59 | 
Clc1cccc(CSc2nnc(-c3ccccc3)o2)c1 | < 4.59 | < 4.59 | 4 | < 4.59 | 
COc1cccc(CSc2nnc(-c3ccccc3)o2)c1 | < 4.59 | < 4.59 | 1 | < 4.59 | 
Cc1ccccc1-c1nnc(SCc2ccccc2)o1 | < 4.59 | < 4.59 | 16 | < 4.59 | 
FC(F)(F)c1ccc(-c2nnc(SCc3ccccc3)o2)cc1 | < 4.59 | < 4.59 | 1 | < 4.59 | 
